Read-outs that look alike come from different tables or passages of the source.
Experiments:
GLS1 = GLS1 (Homo sapiens (Human), UniProt O94925); test: GLS Enzyme Potency Assay (Glutamate Oxidase/AmplexRed coupled assay); type: biochemical
Text: (§1) The following assays were used to measure the effects of the compounds described herein: a) GLS Enzyme Potency Assay; b) GLS Cell Potency Assay; c) GLS Cell Proliferation Assay. During the description of the assays, generally: • i. The following abbreviations have been used: CO2=Carbon dioxide; DMEM=Dulbecco's Modified Eagle Medium; DMSO=Dimethyl sulphoxide; EDTA=Ethylenediaminetetraacetic acid; EGTA=Ethylene glycol tetraacetic acid; FCS=Foetal calf serum; h=Hour(s); NBS=Non-binding surface; SDS=Sodium dodecyl sulphate; TRIS=Tris(Hydroxymethyl)aminomethane. • ii. IC50 values were calculated using a smart fitting model in Genedata.
Assay a): GLS Enzyme Potency Assay
A Glutamate Oxidase/AmplexRed coupled assay was used to measure the ability of compounds to bind to and inhibit the activity of GLS1 in vitro. […] GLS1 was diluted to 2×working concentration and incubated at room temperature to allow the tetrameric/dimeric forms to reach steady state. Assay measurements were performed in buffer comprising 50 mM TRIS pH 7.8, 100 mM NaPO4, pH 7.8, 0.001% v/v Tween20. […] DMSO concentration was maintained at 2% by back filling with DMSO solution. […] 3 μL of 100 mM glutamine diluted in assay buffer was then added and the reaction incubated at room temperature for 60 minutes. […] An artefact version of the assay where the 6His tagged GLS protein and glutamine were replaced with assay buffer was also used to rule out non specific effects on the assay components.

[1] = target: cellular GLS activity in PC3 cells (Homo sapiens (Human), UniProt O94925); test: GLS Cell Potency Assay (PC3 coupled assay measuring cellular glutamate depletion); type: cell-based; conditions: PC3 cells, 6 h incubation, cellular glutamate depletion; read-out: Assay b) GLS cell MOA Mean IC50
Text: as §1
Assay b): GLS Cell Potency Assay
Compounds were assessed for their potential to inhibit cellular GLS activity by use of a PC3 coupled assay measuring cellular glutamate depletion. […] DMSO concentration was maintained at 0.3% by back filling with DMSO solution. PC3 cells were grown in phenol free DMEM, 10% dialyzed FCS, 2 mM glutamine and following dispersal by trypsinisation were plated at 5.6×10^3 cells per well in 40 μl of growth medium directly into the 384 well assay plates containing dispensed compound. After incubation for 6 h at 37° C., 5% CO2 growth media was aspirated and cells lysed in 15 μl of buffer containing 10 mM TRIS pH7.4, 100 mM NaCl, 1 mM EDTA, 1 mM EGTA, 1 mM NaF, 20 mM Na4P2O7, 2 mM Na3VO4, 1% Triton X-100, 10% glycerol, 0.1% SDS and 0.5% deoxycholate. 4 μl Of cell lysate was then transferred to a 384 well NBS plate (Corning product code 3575) and 35 μl of […] Amplex Red, 0.1375 U/mL Horseradish Peroxidase, 0.044 U/mL glutamate oxidase, 100 mM TRIS pH7.5 was added.

NCI-H1703 cells = test: GLS Cell Proliferation Assay (NCI-H1703 cell proliferation); type: cell-based
Text: as §1
Assay c): GLS Cell Proliferation Assay
The ability of compounds to inhibit cell growth was measured using a 384 well plate NCI-H1703 cell proliferation assay. NCI-H1703 cells were grown in phenol red free RPMI1640, 10% FCS and 2 mM glutamine and seeded at a density of 750 cells per well in 40 μl of growth medium into clear-bottom 384 well assay plates (Corning product code 3712) and incubated for 24 h at 37° C., 5% CO2. Test compounds were prepared by dilution in 100% DMSO to give the correct dose range for 12 point concentration response and an appropriate volume (5-120 nl) dispensed directly into the assay plates containing plated cells. DMSO concentration was maintained at 0.3% by back filling with DMSO solution. Plates were incubated for 5 days at 37° C., 5% CO2, Sytox Green and Saponin added to final concentration of 2 μM and 0.25% respectively and incubated for 6 h prior to analysis. Plates were read on an Acumen eX3 (TTP Labtech) using 488 nm excitation and FITC filter set (500-530 nm) for emission. IC50 values were calculated by curve fitting to max inhibition of day zero growth using GeneData software analysis.

[2] = Homo sapiens, 120 h; NCI-H1703 cells, 5 days incubation, Sytox Green; read-out: Assay c) Prolif Mean IC50
[3] = recombinant 6His tagged GLS protein (amino acids 63-669), 60 minutes reaction with glutamine
[4] = Homo sapiens, NCI-H1703, 120 h, NCI-H1703 cells, 5 days incubation, Sytox Green; read-out: Assay c) Prolif Mean IC50

Sequence of cellular GLS activity in PC3 cells (O94925 55-669): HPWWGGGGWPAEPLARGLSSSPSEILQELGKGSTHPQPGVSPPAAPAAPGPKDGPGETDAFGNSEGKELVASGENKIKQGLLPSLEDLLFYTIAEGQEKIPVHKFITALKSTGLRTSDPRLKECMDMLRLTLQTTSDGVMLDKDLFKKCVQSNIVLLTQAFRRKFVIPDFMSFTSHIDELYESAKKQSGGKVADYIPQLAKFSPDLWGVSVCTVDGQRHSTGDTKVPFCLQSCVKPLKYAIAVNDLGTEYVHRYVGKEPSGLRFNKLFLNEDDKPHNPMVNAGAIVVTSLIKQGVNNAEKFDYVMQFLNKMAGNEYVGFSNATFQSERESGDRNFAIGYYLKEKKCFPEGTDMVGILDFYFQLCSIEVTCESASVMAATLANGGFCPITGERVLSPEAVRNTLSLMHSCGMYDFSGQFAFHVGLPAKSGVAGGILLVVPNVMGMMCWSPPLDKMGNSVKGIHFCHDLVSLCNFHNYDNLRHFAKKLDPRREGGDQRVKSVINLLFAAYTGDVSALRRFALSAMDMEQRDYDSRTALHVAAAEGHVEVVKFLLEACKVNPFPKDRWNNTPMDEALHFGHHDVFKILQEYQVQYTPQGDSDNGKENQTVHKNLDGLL
Sequence of GLS1 (O94925 63-669): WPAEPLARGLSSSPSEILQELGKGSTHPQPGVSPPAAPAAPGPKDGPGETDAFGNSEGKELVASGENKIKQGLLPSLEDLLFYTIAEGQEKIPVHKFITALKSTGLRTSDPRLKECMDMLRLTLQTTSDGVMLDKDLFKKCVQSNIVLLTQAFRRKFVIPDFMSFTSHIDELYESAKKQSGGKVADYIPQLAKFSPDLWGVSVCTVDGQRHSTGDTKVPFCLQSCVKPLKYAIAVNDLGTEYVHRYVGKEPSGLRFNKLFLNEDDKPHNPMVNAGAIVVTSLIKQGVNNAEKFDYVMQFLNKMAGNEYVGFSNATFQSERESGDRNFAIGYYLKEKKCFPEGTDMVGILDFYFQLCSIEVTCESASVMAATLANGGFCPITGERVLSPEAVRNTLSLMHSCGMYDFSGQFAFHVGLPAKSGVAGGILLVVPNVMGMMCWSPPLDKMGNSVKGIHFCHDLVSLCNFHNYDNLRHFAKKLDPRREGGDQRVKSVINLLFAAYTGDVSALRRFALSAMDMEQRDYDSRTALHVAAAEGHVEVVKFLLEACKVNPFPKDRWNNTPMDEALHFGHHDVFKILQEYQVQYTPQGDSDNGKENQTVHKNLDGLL

Row | SMILES | IC50 (GLS1) [nM] | IC50 [1] [nM] | IC50 (NCI-H1703 cells; [2]) [nM] | IC50 (GLS1; [3]) [nM] | IC50 (NCI-H1703 cells; [4]) [nM] | IC50 (NCI-H1703 cells; NCI-H1703 cells, 5 days incubation, Sytox Green; read-out: Assay c) Prolif Mean IC50) [nM]
1 | O=C(Nc1nnc(N[C@@H]2CCN(c3ccc(F)nn3)C2)s1)[C@@H](c1cccc(OC(F)(F)F)c1)N1CCC1 [Example 12(b), (2R)-2-(azetidin-1-yl)-N-[5-[[(3R)-1-(6-fluoropyridazin-3-yl)pyrrolidin-3-yl]amino]-1,3,4-thiadiazol-2-yl]-2-[3-(trifluoromethoxy)phenyl]acetamide] | 246 | 1.41 | 12.9 | – | – | –
2 | CN(C)[C@H](C(=O)Nc1nnc(N[C@@H]2CCN(c3cccnn3)C2)s1)c1cccc(C#N)c1 [Example 13, (2S)-2-(3-cyanophenyl)-2-(dimethylamino)-N-[5-[[(3R)-1-pyridazin-3-ylpyrrolidin-3-yl]amino]-1,3,4-thiadiazol-2-yl]acetamide] | 226 | 11.3 | 76.8 | – | – | –
3 | CN(C)[C@@H](C(=O)Nc1nnc(N[C@@H]2CCN(c3cccnn3)C2)s1)c1cccc(OC(F)(F)F)c1 [Example 14, (2R)-2-(dimethylamino)-N-[5-[[(3R)-1-pyridazin-3-ylpyrrolidin-3-yl]amino]-1,3,4-thiadiazol-2-yl]-2-[3-(trifluoromethoxy)phenyl]acetamide] | – | 10.2 | – | 2260 | 5.23 | –
4 | COc1ccc([C@H](C(=O)Nc2nnc(N[C@@H]3CCN(c4cccnn4)C3)s2)N(C)C)cc1 [Example 15, (2R)-2-(dimethylamino)-2-(4-methoxyphenyl)-N-[5-[[(3R)-1-pyridazin-3-ylpyrrolidin-3-yl]amino]-1,3,4-thiadiazol-2-yl]acetamide] | – | 22.2 | – | 3750 | 152 | –
5 | COc1ccc([C@@H](C(=O)Nc2nnc(N[C@@H]3CCN(c4cccnn4)C3)s2)N(C)C)cc1 [Example 16, (2S)-2-(dimethylamino)-2-(4-methoxyphenyl)-N-[5-[[(3R)-1-pyridazin-3-ylpyrrolidin-3-yl]amino]-1,3,4-thiadiazol-2-yl]acetamide] | – | 4.76 | – | 198 | 131 | –
6 | Cc1ccccc1[C@@H](C(=O)Nc1nnc(N[C@@H]2CCN(c3cccnn3)C2)s1)N(C)C [Example 17, (2S)-2-(dimethylamino)-2-(o-tolyl)-N-[5-[[(3R)-1-pyridazin-3-ylpyrrolidin-3-yl]amino]-1,3,4-thiadiazol-2-yl]acetamide] | – | 10.7 | 163 | 187 | – | –
7 | CN(C)[C@H](C(=O)Nc1nnc(N[C@@H]2CCN(c3cccnn3)C2)s1)c1cccc(OC(F)(F)F)c1 [Example 18, (2S)-2-(dimethylamino)-N-[5-[[(3R)-1-pyridazin-3-ylpyrrolidin-3-yl]amino]-1,3,4-thiadiazol-2-yl]-2-[3-(trifluoromethoxy)phenyl]acetamide] | – | 1.1 | – | 182 | – | 3.51

— patent US10040789B2, “1,3,4-thiadiazole compounds and their use in treating cancer” (AstraZeneca AB, priority 2015, dated 2018)
